Columns and labels:
Magnaporthe grisea = experiment: whole plant or invertebrate; assay type: in vivo; conditions: Blast on rice
Botrytis cinerea = experiment: Test Example B: Gray mold on tomato; conditions: Gray mold on tomato
Protocol: Seeds of a test plant (tomato variety: Oogata Fukuju) were planted and cultivated until three to five first leaves (true leaves) appeared. In the test, the inventive compounds were dissolved into dimethyl sulfoxide-methanol mixture solution (volume ratio: 9/1), and the resultant solutions were diluted with well water to a concentration of 250 ppm to obtain the drug solutions. The drug solutions were sprayed to the test plant (2.5 ml/pot). After the drug solutions dried, a conidial suspension (4-8×10^5 conidia/ml) of Botrytis cinerea was inoculated to the plant by spraying. After the inoculation, the plant was kept in a mist chamber at room temperature of 20 to 23° C. for about 48 hours to promote the onset of disease. The degrees of disease development were investigated 2 to 3 days after the inoculation, and the effectiveness of the drug solutions was evaluated.
(§1) In Test Examples described above, the degrees of disease development were evaluated in increments of 0.05 from 0 (as no incidence of disease) to 3 (as the degree of disease development in an untreated plant group). Further, control values were calculated using the following equation based on the degree of disease development.
(§2) n=Degree of disease development in each treated group
In the table, H: more than 50% control value, L: 50% or less control value, and nt: not tested.

Puccinia recondita = experiment: Test Example E: Brown rust on wheat; assay type: in vivo; conditions: Brown rust on wheat
Phytophthora infestans = experiment: whole plant or invertebrate; assay type: in vivo; conditions: Late blight on tomato
Alternaia brassicicola = experiment: Test Example C: Alternaria sooty spot on cabbage; assay type: in vivo; conditions: Alternaria sooty spot on cabbage
Source text: Seeds of a test plant (cabbage variety: Shikidori) were planted and cultivated until the cotyledons extended.
<Control Value> Control value=100{1−(n/3)}

[1] = tested on: Blumeria graminis f. sp. hordei; experiment: Test Example D: Powdery mildew on barley; conditions: Powdery mildew on barley
Protocol: Seeds of a test plant (barley variety: Akashinriki) were planted and cultivated until the first leaves appeared. In the test, the inventive compounds were dissolved into dimethyl sulfoxide-methanol mixture solution (volume ratio: 9/1), and the resultant solutions were diluted with well water to a concentration of 250 ppm to obtain the drug solutions. The drug solutions were sprayed to the test plant (2.5 ml/pot). After the drug solutions dried, conidia of Blumeria graminis f. sp. hordei were inoculated to the plant by shaking off. The degrees of disease development were investigated 6 to 10 days after the inoculation, and the effectiveness of the drug solutions was evaluated.
as §1, §2

[2] = tested on: Colletotrichum orbiculare; experiment: Test Example H: Anthracnose on cucumber; conditions: 250 ppm spray
Plasmopara viticola = experiment: Test Example G: Downy mildew on vine; conditions: 250 ppm spray

Structure (SMILES)	Test A control value (Magnaporthe grisea; control value class)	Test B control value (Botrytis cinerea; control value class)	Test E control value (Puccinia recondita; control value class)	Test F control value (Phytophthora infestans; control value class)	Test C control value (Alternaia brassicicola; control value class)	Test D control value ([1]; control value class)	Test H control value ([2]; Anthracnose on cucumber, 6 to 10 days after inoculation)	Test G control value (Plasmopara viticola; Downy mildew on vine, 7 to 10 days after inoculation)	Test A control value class (Magnaporthe grisea; class of control value)	Test B control value class (Botrytis cinerea; class of control value)	Test E control value class (Puccinia recondita; class of control value)	Test F control value class (Phytophthora infestans; class of control value)	Test C control value class (Alternaia brassicicola; class of control value)	Test D control value class ([1]; class of control value)	Test H control value class ([2]; Anthracnose on cucumber (Sagami Hanjiro), 2.5 ml/pot, assessed 6 to 10 days after inoculation)	Test G control value class (Plasmopara viticola; Downy mildew on vine (Neomuscat), 2.5 ml/pot, assessed 7 to 10 days after inoculation)
CCc1cc(Br)c(=O)n(CC)c1-c1ccc(F)cc1Cl [compound 186]	H (more than 50% control value)	H (more than 50% control value)	H (more than 50% control value)	L (50% or less control value)	H (more than 50% control value)	H (more than 50% control value)	H (more than 50% control value)	H (more than 50% control value)	–	–	–	–	–	–	–	–
CCn1c(-c2c(F)cccc2F)c(CN(C)C(C)C)cc(Cl)c1=O [compound 80]	–	–	–	–	–	–	–	–	L (50% or less control value)	H (more than 50% control value)	L (50% or less control value)	H (more than 50% control value)	L (50% or less control value)	L (50% or less control value)	H (more than 50% control value)	L (50% or less control value)

From US11147272B2, “Pyridone compounds and agricultural and horticultural fungicides comprising the same as active ingredients” (MITSUI CHEMICALS AGRO, INC., priority 2017, dated 2021)
